Experimental data taken from patent US4853401A, “Spiro-hydantoins as aldose reductase inhibitors” (priority 1987, dated 1989).

Legend:
[1] = Acute oral toxicity (LD50); type: in vivo; conditions: mouse, in vivo, mice, read-out: Lethal dose LD50
Experimental: (§1) The LD 50 was calculated by the method of Litchfield and Wilcoxon (J. Pharmacol. Exp. Ther., 96, 99, 1949) and is expressed in mg/kg. The products were orally administered to mice.
(§2) Behaviour was studied, 2, 4, 6 and 24 hours after treatment. Observation was continued if symptoms persisted at that time. Deaths were recorded during the 14 days after treatment. The results are given in Table II, in which the numbers of the compounds are the same as the numbers given in column 1 of Table I.

mice [2] = assay: Acute oral toxicity (LD50); type: in vivo; conditions: 3 000 mg/kg
Experimental: as §1, §2

mice [3] = assay: Effect on behaviour (Irwin method), side effects; type: in vivo
Experimental: The effect on behaviour was studied by a method derived from that of S. Irwin (Gordon Res. Conf. on Medicinal Chem., 133, 1959). The substances, suspended in 1% tragacanth mucilage, were orally administered via an intra-gastric probe to groups of 5 male mice fasted for 18 hours. The maximum tested dose was 3 000 mg/kg or 1 000 mg/kg, and smaller doses were tested if an effect has been observed.
as §2

[4] = system: accumulation of sorbitol in the crystalline lenses; assay: Inhibition of accumulation of sorbitol in crystalline lenses of diabetic rats; type: in vivo, Sprague Dawley rats; conditions: for Inhibition of accumulation of sorbitol in vivo, crystalline lenses: oral 25 mg/kg at 0, 7 and 24 h, sacrificed 27 h
Experimental: (§3) 2.1 Inhibition of accumulation of sorbitol in crystalline lenses and nerves of diabetic rats:
(§4) The effects of the products according to the invention on the proportion of plasma glucose and the accumulation of sorbitol in the crystalline lenses and sciatic nerves of rats made diabetic by streptozotocin were examined by the method of M. J. Peterson, et al (Metabolism, 28, 456-461 (1979)).
(§5) Fasted Sprague Dawley rats were made diabetic by intraperitoneal injection of streptozotocin (75 mg/kg). The product under test was orally administered at a dose of 25 mg/kg after 0, 7 and 24 hours. The rats were sacrificed 27 hours after induction of diabetes. The crystalline lenses and sciatic nerves were taken and preserved at -20° C. until analysed. The crystalline lenses and sciatic nerves were homogenized in water and the proteins were precipitated from ethanol. The precipitate was eliminated by centrifuging and the supernatant liquid was lyophylised. The sorbitol in the sample was determined by the method of B. Bjorkqvist (J. of Chromatograph, 218, 65-71 (1981)), adapted by A. Lenaers et al. (Arch. Intern. Physiol. Bioch., 91, B, 62-63 (1983)).
(§6) The sample was dissolved in pyridine containing galactitol as an internal standard. Derivatives were formed therefrom by phenylisocyanate during incubation for 1 hour at 60° C. The reaction was then stopped by adding methanol and the derivatives were separated and determined by HPLC.
(§7) The results are expressed as percentage inhibition of the accumulation of sorbitol, compared with the controls.

[5] = system: accumulation of sorbitol in the sciatic nerves; assay: Inhibition of accumulation of sorbitol in sciatic nerves of diabetic rats; type: in vivo, Sprague Dawley rats; conditions: oral 25 mg/kg at 0, 7 and 24 h, sacrificed 27 h
Experimental: as §3, §4, §5, §6, §7

[6] = system: sorbitol accumulation in crystalline lenses; assay: Effect of in vivo doses on sorbitol accumulation in crystalline lenses of diabetic rats; set-up: species or system Sprague Dawley rats; conditions: for ED50: Rattus norvegicus, 27 h, diabetic rats, oral, read-out: ED50 (dose at which measured inhibition of aldose reductase activity is 50%); for ED50 / therapeutic index MED/ED50, crystalline lenses: crystalline lenses
From the text: (§8) 2.2 Effect of "in vivo" doses on sorbitol accumulation in sciatic nerves and crystalline lenses of diabetic rats:
(§9) Estimates were made of the effects of the products on the proportion of plasma glucose and the sorbitol content of the crystalline lenses and sciatic nerves of rats.

[7] = system: sorbitol accumulation in sciatic nerves; assay: Effect of in vivo doses on sorbitol accumulation in sciatic nerves of diabetic rats; set-up: species or system Sprague Dawley rats; conditions: for ED50: Rattus norvegicus, 27 h, diabetic rats, oral, read-out: ED50 (dose at which measured inhibition of aldose reductase activity is 50%); for ED50 / therapeutic index MED/ED50, sciatic nerves: sciatic nerves
From the text: as §8, §9

aldose reductase = target: T1, aldose reductase (Rattus norvegicus, UniProt P07943); assay: Inhibition of enzymatic activity of aldose reductase in vitro; type: biochemical; conditions: 10^-4 M, rat crystalline lens enzyme, pH 6.2, D,L-glyceraldehyde substrate; read-out: Inhibition of enzymatic activity of AR in vitro
T1 construct: The supernatant liquid formed the enzyme solution used for the test; from tissue; host or cells: rat crystalline lens, water homogenate, supernatant
From the text: 1.1 Inhibiting effect on enzymatic activity of aldose reductase:
The method described by S. Hayman and J. H. Kinoshita (J. Biol. Chem., 240, 877 (1965)) was used for in vitro testing of the aforementioned effect of the products according to the invention.
Rat's crystalline lens was homogenized in water and centrifuged to eliminate insoluble substances. The supernatant liquid formed the enzyme solution used for the test.
(§10) The effect of products according to the invention in inhibiting enzymatic activity of aldose reductase was determined by spectrophotometrically following for 5 minutes the disappearance of NADPH in an aqueous solution containing 0.067M phosphate buffer (final pH: 6.2), 0.40M lithium sulphate, 5.10^-5 M NADPH, 10^-4 M of the product under test and 100 μl of the enzyme solution, to which 10^-2 M of D,L-glyceraldehyde had been added as substrate. (NADPH=reduced form of nicotinamide adenine dinucleotide phosphate).
The inhibiting effect observed in the presence of 10^-4 M of product under test relative to the reaction in the absence of a compound according to the invention, is expressed as a percentage.

[8] = system: accumulation of galactitol in fibroblasts obtained from human skin; assay: Inhibition of accumulation of galactitol in fibroblasts; type: cell-based; conditions: Fibroblast, 48 h, 37° C., galactose 3 mg/ml
Experimental: 1.2 Inhibiting effect on accumulation of galactitol:
A test for evaluating this activity was made in vitro on fibroblasts obtained from human skin.
An experimental model culture was obtained by incubating the cells in the presence of a medium containing a high concentration of galactose (3 mg/ml) and the product under test, and measuring the accumulation of galactitol in the cells after a 48-hour incubation period at 37° C. The cells were then isolated, washed in physiological salt solution and treated with a water-ethanol solution. The medium was centrifuged and the supernatant liquid was lyophylized.
The galactitol in the resulting sample was determined by HPLC (=high pressure liquid chromatography) after derivatives had been obtained with phenyl isocyanate.
The proportion of proteins in the precipitate obtained during the previously-mentioned centrifuging was measured by the method of M. M. Bradford (Anal. Biochem., 72, 248-254 (1976)) and indicated the number of cells present in the sample.
The inhibiting effect of the tested product was expressed as a percentage inhibition of intracellular accumulation of galactitol compared with the controls.

[9] = Effect of in vivo doses on plasma glucose of diabetic rats; set-up: species or system Sprague Dawley rats; conditions: n = 5, average ± standard deviation
Experimental: Compound No. 1 (CP 3182 AR) and No. 2 (CP 3192 AR) were evaluated at various doses, using the experimental model described hereinbefore (.sctn.2.1).
In the case of each product, 25 Sprague Dawley rats fasted the previous day were made diabetic by an intraperitoneal injection of streptozotocin (75 mg/kg). The rats were divided into 5 groups of 5, each orally given 0.3, […] or 10 mg/kg of CP 3182 AR or a control.
An identical experiment was performed with CP 3192 AR at the same doses. Treatment was given immediately after the streptozotocin, and 7 and 24 hours later. The animals were sacrificed 27 hours after induction. Estimates were made of the effects of the products on the proportion of plasma glucose and the sorbitol content of the crystalline lenses and sciatic nerves of rats.

[10] = Solubility in the aldose reductase test medium; type: physicochemical; conditions: 10^-4 M, aqueous phosphate buffer pH 6.2
Experimental: as §10

For `O=C1NC(=O)[C@@]2(CCOc3ccc(F)cc32)N1` [sorbinil, d-6-fluoro-spiro-/chromane-4,4'-imidazolidine/-2',5'-dione, reference compound], the LD50 at 336 h [1] was 1450 mg/kg, the mortality (mice [2]) was “all the mice died on the second day” and the “MED (minimum dose at which a side effect is observed)” value (mice [3]; mouse, in vivo, po) was 300 mg/kg. For the same compound, the “duration of side effects” value (mice [3]; mouse, in vivo, po, 300 mg/kg) was “more than 24 hours”, the side-effects (mice [3]; mouse, in vivo, po, 300 mg/kg) was “depression with loss of righting reflex and muscular hypotonia” and the “Inhibition of accumulation of sorbitol in vivo, crystalline lenses” value (“Inhibition … in vivo, crystalline lenses” for short) [4] was 93%. For the same compound, the “Inhibition of accumulation of sorbitol in vivo, in sciatic nerves” value (“Inhibition … in sciatic nerves” for short) [5] was 85%, the ED50 [6] was 1 mg/kg and the “therapeutic index MED/ED50, crystalline lenses” value [6] was 300. For the same compound, the ED50 [7] was 1 mg/kg and the “therapeutic index MED/ED50, sciatic nerves” value [7] was 300.
In the case of `O=C1N(CO)C(=O)C2(c3ccccc3-c3ccccc32)N1CO` [Compound 1, bis-(1',3'-hydroxymethyl)-spiro-/fluorene-9,4'-imidazolidine/-2',5'-dione], the LD50 at 336 h [1] is reported as > 3000 mg/kg, the side effect observed (mice [3]; dose of 3000 mg/kg) is reported as “no side effect was observed” and the “MED (minimum dose at which a side effect is observed)” value (mice [3]; mice, oral) is reported as > 3 000 mg/kg. It also gave an inhibition at 100 µM (aldose reductase) of 34%, an inhibition at 100 µM ([8]; 10^-4 M) of 85% and an inhibition at 10 µM ([8]; 10^-5 M) of 58%. The inhibition at 1 µM ([8]; 10^-6 M) was 21%, the “Inhibition … in vivo, crystalline lenses” value [4] was 81% and the “inhibition of accumulation of sorbitol in crystalline lenses and sciatic nerves (in words)” value ([4]; oral 25 mg/kg, lenses and sciatic nerves) was “particularly active”. For the same compound, the “Inhibition … in sciatic nerves” value [5] was 85%, the “% inhibition of sorbitol accumulation, Crystalline lenses” value (“% inhibition … Crystalline lenses” for short) ([6]; 0.3 mg/kg oral at 0, 7, 24 h) was 0 ± 21% and the “% inhibition … Crystalline lenses” value ([6]; 1 mg/kg oral at 0, 7, 24 h) was 1 ± 3%. For the same compound, the “% inhibition … Crystalline lenses” value ([6]; 3 mg/kg oral at 0, 7, 24 h) was 41%, the “% inhibition … Crystalline lenses” value ([6]; 10 mg/kg oral at 0, 7, 24 h) was 71% and the ED50 [6] was 3 mg/kg. The “therapeutic index MED/ED50, crystalline lenses” value [6] was “about 1 000”, the “% inhibition of sorbitol accumulation, Sciatic nerves” value (“% inhibition … Sciatic nerves” for short) ([7]; 0.3 mg/kg oral at 0, 7, 24 h) was 29 ± 14% and the “% inhibition … Sciatic nerves” value ([7]; 1 mg/kg oral at 0, 7, 24 h) was 41 ± 10%. The “% inhibition … Sciatic nerves” value ([7]; 3 mg/kg oral at 0, 7, 24 h) was 69 ± 8%, the “% inhibition … Sciatic nerves” value ([7]; 10 mg/kg oral at 0, 7, 24 h) was 82 ± 6% and the ED50 [7] was 1 mg/kg. For the same compound, the “therapeutic index MED/ED50, sciatic nerves” value [7] was “above 3 000”, the Plasma glucose ([9]; 0.3 mg/kg oral) was 462 ± 60 mg/100 ml and the Plasma glucose ([9]; 1 mg/kg oral) was 538 ± 34 mg/100 ml. It also gave a Plasma glucose ([9]; 3 mg/kg oral) of 464 ± 62 mg/100 ml and a Plasma glucose ([9]; 10 mg/kg oral) of 424 ± 37 mg/100 ml.
With `O=C(Cc1ccccc1)OCN1C(=O)N(COC(=O)Cc2ccccc2)C2(C1=O)c1ccccc1-c1ccccc12` [Compound 23] the “Inhibition … in vivo, crystalline lenses” value [4] was 5%, the “Inhibition … in sciatic nerves” value [5] was 7% and the “insolubility in the tested medium” value [10] was “insol”.
